Measurements reported in US20080090805A1, “CB-1 MODULATING COMPOUNDS AND THEIR USE” (ACADIA PHARMACEUTICALS INC., priority 2005, published 2008).

Assays:
[1] = Clearance study, liver microsomes (rats); details: rat, pH 7.4
[2] = Clearance study, liver microsomes (human); details: pH 7.4
[3] = test system: NSA mice; test: Hypothermia study (block of CP 55,940-induced hypothermia); format: in vivo; set-up: Hypothermia 3 mg/kg / Hypothermia 0.3 mg/kg: unit not given here; details: for Hypothermia ID50: block of CP 55,940-induced hypothermia
Protocol: . […] Core body temperatures were then obtained at various time points following CP 55,940 administration. Core body temperature (to the nearest 0.1° C.) was obtained by rectal probe.

SMILES	microsomal CLint at 1 μM [1] [µL/min/mg]	microsomal CLint at 1 μM [2] [µL/min/mg]	Hypothermia 3 mg/kg [3]	also measured
CC(NC(=O)c1ccc2c(c1)N=C(c1ccc(Cl)cc1)c1ccccc1S2)c1ccccc1 (stereo not drawn) [drawing 1804]	62	18	–	–
CCCCNC(=O)c1cnc2c(n1)N=C(c1ccccc1)c1ccccc1S2 [drawing 1722]	44	38	–	–
O=C(NCCc1ccccc1)c1ccc2c(c1)N=C(c1ccc(Cl)cc1)c1ccccc1S2 [drawing 1745]	144	62	–	–
O=C(NNCC(F)(F)F)c1ccc2c(c1)N=C(c1ccc(Cl)cc1)c1ccccc1S2 [drawing 1696]	39	21	–	–
CCCCNC(=O)c1ccc2c(c1)N=C(c1ccc(Cl)cc1)c1cc(Cl)ccc1S2 [drawing 1688]	52	13	–	–
O=C(NCCc1ccc(Cl)cc1)c1ccc2c(c1)N=C(c1cccc(Cl)c1)c1ccccc1S2 [drawing 1739]	83	62	–	–
O=C(NCCc1ccc(Cl)cc1)c1ccc2c(c1)N=C(N1CCC(F)CC1)c1ccccc1S2 [drawing 1734]	670	476	–	–
CCCCNC(=O)c1ccc2c(c1)N=C(c1ccc(Cl)cn1)c1cc(F)ccc1S2 [drawing 1748]	131	57	–	–
CC(CNC(=O)c1ccc2c(c1)N=C(C1CCCCC1)c1ccccc1S2)c1ccccc1 (stereo not drawn) [drawing 1769]	267	125	–	–
Cc1ccc(CNC(=O)c2ccc3c(c2)N=C(c2ccc(Cl)s2)c2ccccc2S3)o1 [drawing 1697]	124	30	–	–
O=C(NCCc1ccccc1)c1ccc2c(c1)N=C(c1ccc(F)cc1)c1ccccc1S2 [drawing 1773]	274	109	–	–
CCCCNC(=O)c1ccc2c(c1)N=C(c1ccc(Cl)s1)c1ccc(Cl)cc1S2 [drawing 1694]	55	15	–	–
CC(C)CNC(=O)c1ccc2c(c1)N=C(c1ccc(Cl)s1)c1ccc(F)cc1S2 [drawing 1793]	49	32	–	–
O=C(NCCCC(F)(F)F)c1ccc2c(c1)N=C(c1ccc(Cl)s1)c1ccccc1S2 [drawing 1655]	136	31	–	–
O=C(NCCc1ccc(Cl)cc1)c1ccc2c(c1)N=C(c1ccc(Cl)cc1)c1ccccc1S2 [drawing 1807]	122	54	–	–
CCN(CCNC(=O)c1ccc2c(c1)N=C(c1ccc(F)cc1)c1ccccc1S2)c1ccccc1 [drawing 1749]	484	278	–	–
CCCCNC(=O)c1ccc2c(c1)N=C(c1ccc(Cl)s1)c1cc(Cl)ccc1S2 [drawing 1678]	63	22	–	–
Cc1ccsc1C1=Nc2cc(C(=O)NCCCC(F)(F)F)ccc2Sc2ccccc21 [drawing 1701]	297	379	–	–
O=C(NCc1ccc(Cl)cc1Cl)c1ccc2c(c1)N=C(c1ccc(Cl)cc1)c1ccccc1S2 [drawing 1796]	5	1	–	–
CC(CNC(=O)c1ccc2c(c1)N=C(c1cccc(Cl)c1)c1ccccc1S2)c1ccccc1 (stereo not drawn) [drawing 1755]	174	56	–	–
CC(C)CNC(=O)c1ccc2c(c1)N=C(c1ccc(Cl)cc1)c1ccc(F)cc1S2 [drawing 1657]	63	11	–	–
CCCCNC(=O)c1ccc2c(c1)N=C(c1ccc(Cl)cc1)c1ccc(F)cc1S2 [drawing 1663]	79	9	–	–

SMILES	microsomal CLint at 1 μM [1] [µL/min/mg]	microsomal CLint at 1 μM [2] [µL/min/mg]	Hypothermia 3 mg/kg [3]	also measured
O=C(NCc1cccc(Cl)c1)c1ccc2c(c1)N=C(c1cccc(Cl)c1)c1cc(F)ccc1S2 [drawing 1805]	61	10	–	–
O=C(NCCCC(F)(F)F)c1ccc2c(c1)N=C(c1ccc(Cl)cc1F)c1ccccc1S2 [drawing 1653]	105	14	–	–
O=C(NN1CCCCC1)c1ccc2c(c1)N=C(N1CCCCC1)c1ccccc1S2 [drawing 1792]	536	54	–	–
CC(C)CNC(=O)c1ccc2c(c1)N=C(c1ccc(Cl)cn1)c1ccc(F)cc1S2 [drawing 1746]	175	25	–	–
CC(CNC(=O)c1ccc2c(c1)N=C(c1ccc(Cl)cc1)c1cc(F)ccc1S2)c1ccccc1 (stereo not drawn) [drawing 1716]	165	39	–	–
O=C(NCc1ccco1)c1ccc2c(c1)N=C(c1ccc(Cl)s1)c1ccccc1S2 [drawing 1557]	–	–	66	–
O=C(NCc1cccc(Cl)c1)c1ccc2c(c1)N=C(c1ccc(F)cc1)c1ccccc1S2(=O)=O [drawing 1571]	–	–	45	–
CCCCNC(=O)c1cnc2c(n1)N=C(c1ccccc1)c1ccccc1S2 [drawing 1607]	–	–	7	–
CCCCNC(=O)c1ccc2c(c1)N=C(c1ccc(Br)cn1)c1ccccc1S2 [drawing 1555]	–	–	80	–
O=C(NC1CCCCC1)c1ccc2c(c1)N=C(c1ccc(F)cc1)c1ccccc1S2 [drawing 1580]	–	–	82	Hypothermia 0.3 mg/kg [3]: 28
O=C(NCc1ccco1)c1ccc2c(c1)N=C(c1cccc(F)c1)c1ccccc1S2 [drawing 1631]	–	–	21	–
O=C(NCc1cccs1)c1ccc2c(c1)N=C(c1cccc(F)c1)c1ccccc1S2 [drawing 1559]	–	–	17	–
CC(C)CNC(=O)c1ccc2c(c1)N=C(c1ccc(Cl)cc1F)c1ccccc1S2 [drawing 1576]	–	–	71	Hypothermia 0.3 mg/kg [3]: 0
CCCCNC(=O)c1ccc2c(c1)N=C(c1cccc(F)c1)c1ccccc1S2 [drawing 1593]	–	–	36	–
C[C@@H]1CCC[C@H](C)N1NC(=O)c1ccc2c(c1)N=C(c1cccc(Cl)c1)c1ccccc1S2 [drawing 1605]	–	–	−2	–
O=C(NCCCC(F)(F)F)c1ccc2c(c1)N=C(c1ccsc1)c1ccccc1S2 [drawing 1600]	–	–	–	Hypothermia 0.3 mg/kg [3]: 32
CCCNC(=O)c1ccc2c(c1)N=C(c1ccc(Cl)cc1)c1ccccc1S2 [drawing 1588]	–	–	54	Hypothermia 0.3 mg/kg [3]: 29
O=C(NCCc1cccnc1)c1ccc2c(c1)N=C(c1ccc(Cl)s1)c1ccccc1S2 [drawing 1585]	–	–	76	Hypothermia 0.3 mg/kg [3]: −14; Hypothermia ID50 [3]: 1.7 mg/kg
O=C(NCc1ccc(F)cc1)c1ccc2c(c1)N=C(c1ccc(Cl)cc1)c1ccccc1[S+]2[O-] (stereo not drawn) [drawing 1645]	–	–	22	–
CCCCNC(=O)c1ccc2c(c1)N=C(c1ccc(Cl)cc1)c1ccccc1[S+]2[O-] (stereo not drawn) [drawing 1619]	–	–	31	–
Cc1ccsc1C1=Nc2cc(C(=O)NN3CCCCCC3)ccc2Sc2ccccc21 [drawing 1597]	–	–	18	–
O=C(NC1CCC(F)(F)CC1)c1ccc2c(c1)N=C(c1cccc(Cl)c1)c1ccccc1S2 [drawing 1604]	–	–	–	Hypothermia 0.3 mg/kg [3]: 5

SMILES	microsomal CLint at 1 μM [1] [µL/min/mg]	microsomal CLint at 1 μM [2] [µL/min/mg]	Hypothermia 3 mg/kg [3]	also measured
CC(C)CNC(=O)c1ccc2c(c1)N=C(c1ccc(F)cc1)c1ccccc1S2 [drawing 1636]	–	–	53	Hypothermia 0.3 mg/kg [3]: 14
O=C(NCc1cccnc1)c1ccc2c(c1)N=C(c1cccc(F)c1)c1ccccc1S2 [drawing 1621]	–	–	17	–
O=C(NC1CCCCC1)c1ccc2c(c1)N=C(c1ccc(Cl)cc1)c1ccccc1S2 [drawing 1603]	–	–	60	–
CCCCNC(=O)c1ccc2c(c1)N=C(c1ccc(Cl)cn1)c1cc(F)ccc1S2 [drawing 1627]	–	–	8	–
O=C(NCc1ccccc1)c1ccc2c(c1)N=C(c1cccc(Cl)c1)c1ccccc1S2 [drawing 1638]	–	–	27	–
O=C(NN1CCCCC1)c1ccc2c(c1)N=C(C1CCCCC1)c1ccccc1S2 [drawing 1592]	–	–	69	–
CCCCNC(=O)c1ccc2c(c1)N=C(c1ccc(Cl)cc1)c1ccccc1S2 [drawing 1560]	–	–	82	Hypothermia 0.3 mg/kg [3]: 15; Hypothermia ID50 [3]: 0.79 mg/kg
O=C(NCCCC(F)(F)F)c1ccc2c(c1)N=C(c1cccc(F)c1)c1ccccc1S2 [drawing 1606]	–	–	–	Hypothermia 0.3 mg/kg [3]: 11
O=C(NCCCC(F)(F)F)c1ccc2c(c1)N=C(c1ccc(Cl)cc1F)c1ccccc1S2 [drawing 1552]	–	–	55	Hypothermia 0.3 mg/kg [3]: 24; Hypothermia ID50 [3]: 1.3 mg/kg
CC(C)CNC(=O)c1ccc2c(c1)N=C(c1ccc(Cl)c(Cl)c1)c1ccccc1S2 [drawing 1570]	–	–	40	–
CCCCNC(=O)c1ccc2c(c1)N=C(c1ccc(Cl)s1)c1cc(F)ccc1S2 [drawing 1601]	–	–	17	–
COc1cccc(C2=Nc3cc(C(=O)NCCCC(F)(F)F)ccc3Sc3ccccc32)n1 [drawing 1566]	–	–	46	–
O=C(NCCc1cccnc1)c1ccc2c(c1)N=C(c1cccc(Cl)c1)c1ccccc1S2 [drawing 1643]	–	–	41	–
Cc1ccc(CNC(=O)c2ccc3c(c2)N=C(c2ccc(Cl)s2)c2ccccc2S3)o1 [drawing 1594]	–	–	16	–
CCCCNC(=O)C1=C/C=C/Sc2cc(F)ccc2/C(c2ccc(Cl)cn2)=N\C=C\1	–	–	4	–
O=C(NCc1ccco1)c1ccc2c(c1)N=C(c1ccc(Cl)c(Cl)c1)c1ccccc1S2 [drawing 1567]	–	–	54	–
O=C(NCc1cccc(Cl)c1)c1ccc2c(c1)N=C(c1ccc(Cl)cc1)c1cc(F)ccc1S2 [drawing 1583]	–	–	−4	Hypothermia 0.3 mg/kg [3]: 14
O=C(NCc1cccs1)c1ccc2c(c1)N=C(c1ccc(Cl)s1)c1ccccc1S2 [drawing 1612]	–	–	47	–
O=C(NCc1cccs1)c1ccc2c(c1)N=C(c1ccccc1F)c1ccccc1S2 [drawing 1623]	–	–	10	–
O=C(NC1CCC(F)(F)CC1)c1ccc2c(c1)N=C(c1ccc(Cl)s1)c1ccccc1S2 [drawing 1596]	–	–	51	–
